Test system: H293
Assay: Cytotoxicity testing, CellTiter-Blue assay, 24 hour (FIG. 3)
Type: cell-based
Conditions: 100 μM, 24 hour compound incubation
Procedure: The cytotoxicity tests were carried out in the following manner. Living cells are known to convert resazurin to the fluorescent compound resorufin. Test systems which rely upon this reaction are commercially available. One such test is known at the Cell Titer Blue Cell Viability test assay from Promega. Cell cultures for each of the identified cancer lines were obtained from ATCC and maintained in Dulbecco's Modified Eagle Medium (DMEM) supplemented with 10% fetal bovine serum (FBS) and pen/strep. As known to those skilled in the art, DMEM typically includes the components identified below.
The test method provides for incubating the cell cultures at temperatures which correspond to the range of body temperatures experienced by the patient from which the cancer cells were obtained. Typically, incubation temperatures will be between the temperatures of 36.1° C. and 37.2° C. In most cases incubation will occur at 37° C. Additionally, the cell cultures are kept under an atmosphere which mimics cell conditions of the tumor within the patient's body. In most cases, the tumor microenvironment (TME) is characterized by hypoxia (low oxygen) and may also be characterized by hypercapnia (increased CO2). Hypercapnia results from decreased blood flow which limits CO2 elimination. Restricted CO2 elimination leads to increased HCO3^− conversion to CO2 in order to neutralize lactate as altered tumor cell metabolism produces more CO2 than normal. Normal tissue averages about 5% oxygen with oxygen ranges from about 3% to 7.4%. […] In the case of CO2, normocapnic is around 5% CO2, while hypercapnic can rise to 10% CO2. Therefore, to mimic the environment of the tumor the method utilizes an incubator designed to provide the optimal gaseous environment corresponding to that of the tumor. Thus, the incubator will be capable of maintaining an atmosphere having an oxygen content in the range of […] and a CO2 in the range of 1% to 10%.
After allowing for proliferation of the cells, the cells were distributed across a plurality of test wells containing from 100 μL DMEM plus 10% FBS and allowed to attach to the surface of the test wells. Typically, the time for attachment will require about 12 hours to about 18 hours. […] Following treatment of the cells with the N-benzyl sulfonamide or control, the toxicity of the compound to the cells will be determined by addition of a luminescing agent. […] Subsequently, the fluorescence of resazurin is measured by excitation at 560 nm and recording the emission at 590 nm within an instrument configured to measure fluorescence intensity. Two commercially available systems are the BioTek Cytation 5 plate reader and the Promega Glomax Multi+detection system. […]

## O=S(=O)(NCc1c[nH]c2ccccc12)c1ccc(Cl)cc1 [Compound 2, N-[(1H-indol-3-yl)methyl]-4-chlorobenzenesulfonamide]
  effectiveness, percent reduction in cell viability (FIG. 3): effective

From patent US20250093329A1, “SCREENING OF COMPOUNDS” (THE UNIVERSITY OF TULSA, priority 2022, published 2025)
